By inhibition is commonly meant the relative decrease from the control value, in per cent. The Ki is the equilibrium dissociation constant of an inhibitor or competing ligand from its target.

Calls of active or inactive are those of the source. The rule behind the calls is not given here.

Assay [1] has as its target T1, M-phase inducer phosphatase 1 (Homo sapiens) (UniProt P30304).
T1 sequence (whole entry): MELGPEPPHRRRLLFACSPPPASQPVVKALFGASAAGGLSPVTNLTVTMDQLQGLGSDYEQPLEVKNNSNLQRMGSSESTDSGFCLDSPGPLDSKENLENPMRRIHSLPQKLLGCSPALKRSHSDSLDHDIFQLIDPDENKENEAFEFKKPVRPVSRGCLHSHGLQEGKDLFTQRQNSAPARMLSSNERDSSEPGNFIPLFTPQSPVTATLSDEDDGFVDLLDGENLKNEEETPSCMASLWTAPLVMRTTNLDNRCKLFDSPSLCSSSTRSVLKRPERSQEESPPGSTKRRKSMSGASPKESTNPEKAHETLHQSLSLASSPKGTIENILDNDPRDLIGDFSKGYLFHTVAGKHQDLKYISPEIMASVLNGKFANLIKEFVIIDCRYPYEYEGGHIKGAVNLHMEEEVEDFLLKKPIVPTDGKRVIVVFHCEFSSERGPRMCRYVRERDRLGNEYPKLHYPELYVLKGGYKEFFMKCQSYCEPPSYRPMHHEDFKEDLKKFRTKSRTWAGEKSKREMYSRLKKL
The assay can be described thus: Inhibition of human recombinant full length GST-tagged CDC25A transfected in Escherichia coli BL21-DE3 using 3-O-methylfluorescein phosphate as substrate at 10 uM incubated for 20 mins followed by substrate addition measured every 10 mins for 2 hrs by fluorimetric assay in presence of 0.05% triton X 100.

The target in assay [2] is T2, M-phase inducer phosphatase 1 (Homo sapiens, UniProt P30304).
T2 sequence (P30304 whole entry): T1 sequence (whole entry)
The assay can be described thus: Mixed type inhibition of human recombinant full length GST-tagged CDC25A transfected in Escherichia coli BL21-DE3 assessed as enzyme/inhibitor complex using 3-O-methylfluorescein phosphate as substrate at 20 uM incubated for 20 mins followed by substrate addition measured every 10 mins for 2 hrs by fluorimetric assay.

For the next assay, the system named is MCF7. Briefly: Cell cycle arrest in human MCF7 cells assessed as accumulation at G0/G1 phase at IC50 concentration after 48 hrs by propidium iodide staining-based flow cytometry (reference value: 66.7 +/- 1.6%). The assay is classed as functional.
The target of assay [3] is T1, M-phase inducer phosphatase 1 (Homo sapiens). Briefly: Reversible binding affinity to human recombinant full length GST-tagged CDC25A transfected in Escherichia coli BL21-DE3 after 1 hr by MALDI-TOF mass spectrometry.
Assay [4] relates to MDA-MB-231. Briefly: Cell cycle arrest in human MDA-MB-231 cells assessed as accumulation at G0/G1 phase at IC50 concentration after 48 hrs by propidium iodide staining-based flow cytometry (reference value: 57.3 +/- 0.3%). The assay is classed as functional. A general note: Flow cytometry measures light scatter and fluorescence of single cells or particles in a stream.
Assay [5] relates to MDA-MB-231. Briefly: Induction of autophagy in human MDA-MB-231 cells assessed as acidic vesicles at 8.4 uM over 3 days by acridine orange dye based flow cytometry. The assay is classed as functional, cell-based.

Turning to `COc1ccc(/C=C2/S/C(=N\c3nc4cc(-c5ccc(Cl)cc5)sc4s3)NC2=O)cc1`, the inhibition in assay [1] stood at 54.4%. Further, in assay [2], the Ki came to 3.1 µM. The Activity in the assay on MCF7 came to 58.8%; with MDA-MB-231 [4], 58.3%. The outcome in assay [3] was Active. In addition, the result with MDA-MB-231 [5] was inactive.

The values are drawn from ChEMBL document CHEMBL3808363, “2-(Thienothiazolylimino)-1,3-thiazolidin-4-ones inhibit cell division cycle 25 A phosphatase” (Bioorg Med Chem, 2016).
